# Assay results published in article PMC8433807, “Scaffold Repurposing of In-House Small Molecule Candidates Leads to Discovery of First-in-Class CDK-1/HER-2 Dual Inhibitors: In Vitro and In Silico Screening” (Molecules, 2021).
# How the values were obtained:
# HER-2 = molecular target: T1, HER-2 (Homo sapiens, UniProt P04626); assay: Kinase HotSpot activity assay, single dose in duplicate; type: biochemical; conditions: 10 µM; 10 μM compound; 10 μM ATP; value is residual kinase activity, not inhibition
# T1 construct: gene ERBB2; Reaction Biology Corp. Kinase HotSpot service
# T1 sequence (P04626 676-1255 limits assumed): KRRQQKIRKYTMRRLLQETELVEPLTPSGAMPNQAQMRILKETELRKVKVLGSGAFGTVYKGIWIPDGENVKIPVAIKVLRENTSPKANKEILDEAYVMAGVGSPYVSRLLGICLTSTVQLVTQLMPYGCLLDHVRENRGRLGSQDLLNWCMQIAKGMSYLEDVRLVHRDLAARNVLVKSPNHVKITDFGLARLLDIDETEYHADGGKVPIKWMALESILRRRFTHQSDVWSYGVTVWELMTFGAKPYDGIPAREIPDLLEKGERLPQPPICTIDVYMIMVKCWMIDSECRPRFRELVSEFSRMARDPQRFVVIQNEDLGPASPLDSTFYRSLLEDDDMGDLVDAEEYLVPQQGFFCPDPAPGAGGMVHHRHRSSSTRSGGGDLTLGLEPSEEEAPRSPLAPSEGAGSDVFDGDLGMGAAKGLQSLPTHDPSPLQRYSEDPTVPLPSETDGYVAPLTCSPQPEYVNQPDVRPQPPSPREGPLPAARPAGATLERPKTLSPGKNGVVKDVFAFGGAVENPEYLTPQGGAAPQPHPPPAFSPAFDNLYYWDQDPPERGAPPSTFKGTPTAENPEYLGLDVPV
# CDK-1/cyclin B = molecular target: T2, CDK-1/cyclin B (Homo sapiens, UniProt P06493); assay: as above; type: biochemical; conditions: 10 µM; 10 μM compound; 10 μM ATP; value is residual kinase activity, not inhibition
# T2 construct: gene CDK1; Reaction Biology Corp. Kinase HotSpot service; with G2/mitotic-specific cyclin-B1
# T2 sequence (P06493 whole entry): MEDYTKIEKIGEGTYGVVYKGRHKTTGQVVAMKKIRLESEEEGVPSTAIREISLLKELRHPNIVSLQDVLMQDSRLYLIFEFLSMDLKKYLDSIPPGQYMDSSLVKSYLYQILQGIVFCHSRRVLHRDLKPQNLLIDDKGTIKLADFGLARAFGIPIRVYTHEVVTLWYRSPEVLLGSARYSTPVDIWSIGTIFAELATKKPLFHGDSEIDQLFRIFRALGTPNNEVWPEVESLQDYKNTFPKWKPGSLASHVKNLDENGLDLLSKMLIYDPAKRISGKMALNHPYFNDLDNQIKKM
# T2 sequence (P14635 whole entry partner): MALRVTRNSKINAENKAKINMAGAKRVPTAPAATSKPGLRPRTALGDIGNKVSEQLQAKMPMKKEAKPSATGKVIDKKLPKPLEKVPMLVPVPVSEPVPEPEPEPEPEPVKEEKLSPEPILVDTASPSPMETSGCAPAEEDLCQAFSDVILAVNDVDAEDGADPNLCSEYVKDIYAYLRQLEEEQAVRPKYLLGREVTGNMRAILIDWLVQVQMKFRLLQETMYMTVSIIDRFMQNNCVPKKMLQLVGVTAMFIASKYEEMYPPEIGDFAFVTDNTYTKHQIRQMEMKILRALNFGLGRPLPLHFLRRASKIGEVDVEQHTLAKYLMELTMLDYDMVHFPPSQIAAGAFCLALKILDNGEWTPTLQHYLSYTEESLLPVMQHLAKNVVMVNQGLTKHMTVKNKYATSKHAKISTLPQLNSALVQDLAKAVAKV
smiles,measurement,setting,value
O=C(Nc1ccc2c(ccn2C(=O)c2cccc(F)c2)c1)c1ccnnc1 [15l],% Activity / HER-2,HER-2,52%
same,% Activity / CDK-1/cyclin B,CDK-1/cyclin B,51%
